Reference: ChEMBL document CHEMBL1201862, “PubChem BioAssay data set” (2004)
Active and inactive are the calls of the source.

Legend:
[1] = biological target: T1, DNA dC->dU-editing enzyme APOBEC-3A (Homo sapiens, UniProt P31941); test: SAR analysis of small molecule inhibitors of APOBEC3A DNA Deaminase via a fluorescence-based single-stranded DNA deaminase assay - Set 2.; assay type: functional; conditions: read-out: IC50_Mean
[2] = biological target: T1, DNA dC->dU-editing enzyme APOBEC-3A; test: APOBEC3A DNA deaminase inhibitors, dose response, biochemical (AID 504722); assay type: functional
Leucine aminopeptidase = biological target: T2, Leucine aminopeptidase (Plasmodium falciparum 3D7, UniProt Q8IL11); test: P. falciparum M17LAP inhibitors, primary screen, biochemical, fluorogenic H-Leu-NHMec substrate, 1536-well (AID 1619); assay type: functional
T2 sequence (Q8IL11 whole entry): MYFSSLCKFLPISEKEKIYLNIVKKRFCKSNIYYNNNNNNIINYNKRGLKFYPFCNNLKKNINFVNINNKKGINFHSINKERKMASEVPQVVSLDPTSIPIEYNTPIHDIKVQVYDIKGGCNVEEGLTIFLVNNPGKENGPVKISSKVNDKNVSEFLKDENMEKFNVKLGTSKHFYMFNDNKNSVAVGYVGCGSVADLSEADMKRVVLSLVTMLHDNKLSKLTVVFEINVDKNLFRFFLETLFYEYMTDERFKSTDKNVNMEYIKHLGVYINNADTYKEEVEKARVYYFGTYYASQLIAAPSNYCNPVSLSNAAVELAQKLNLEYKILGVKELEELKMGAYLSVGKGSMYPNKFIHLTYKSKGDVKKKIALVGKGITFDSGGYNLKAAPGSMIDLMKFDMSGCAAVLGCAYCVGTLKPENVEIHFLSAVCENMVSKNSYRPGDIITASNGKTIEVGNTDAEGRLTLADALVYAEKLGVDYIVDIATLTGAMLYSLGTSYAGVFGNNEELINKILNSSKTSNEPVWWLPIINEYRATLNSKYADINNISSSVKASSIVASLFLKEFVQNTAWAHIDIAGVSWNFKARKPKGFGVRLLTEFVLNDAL

[3] = biological target: T1, DNA dC->dU-editing enzyme APOBEC-3A; test: SAR analysis of small molecule inhibitors of APOBEC3A DNA Deaminase via a fluorescence-based single-stranded DNA deaminase assay.; assay type: functional; conditions: read-out: IC50_Mean
[4] = biological target: Luciferin 4-monooxygenase (Photinus pyralis, UniProt P08659); test: firefly luciferase enzyme inhibitors, dose response, biochemical, luminescence (AID 1891)
[5] = biological target: T3, DNA dC->dU-editing enzyme APOBEC-3G (Homo sapiens, UniProt Q9HC16); test: SAR analysis of small molecule inhibitors of APOBEC3G DNA Deaminase via a fluorescence-based single-stranded DNA deaminase assay - Set 2.; assay type: functional; conditions: read-out: IC50_Mean
[6] = biological target: T3, DNA dC->dU-editing enzyme APOBEC-3G; test: APOBEC3G deaminase inhibitors, SAR follow-up, biochemical, fluorescence, single-stranded DNA substrate (AID 602136); assay type: functional; conditions: read-out: IC50_Mean
[7] = biological target: T4, Mannose-6-phosphate isomerase (Homo sapiens, UniProt P34949); test: PMI enzyme inhibitors, confirmation, biochemical, fluorescence intensity (AID 1535)
T4 sequence (P34949 whole entry): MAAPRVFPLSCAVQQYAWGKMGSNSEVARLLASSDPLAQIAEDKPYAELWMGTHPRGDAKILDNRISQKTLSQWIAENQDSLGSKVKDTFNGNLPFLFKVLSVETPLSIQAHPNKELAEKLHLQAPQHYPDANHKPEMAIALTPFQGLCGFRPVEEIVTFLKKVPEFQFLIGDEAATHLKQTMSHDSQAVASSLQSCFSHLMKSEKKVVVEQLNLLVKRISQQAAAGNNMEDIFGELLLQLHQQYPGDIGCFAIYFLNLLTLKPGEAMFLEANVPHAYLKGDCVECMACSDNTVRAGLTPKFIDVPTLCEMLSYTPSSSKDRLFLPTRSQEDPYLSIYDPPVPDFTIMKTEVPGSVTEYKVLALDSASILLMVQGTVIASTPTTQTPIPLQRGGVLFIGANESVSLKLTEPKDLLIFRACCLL

Phosphomannomutase 2 = Phosphomannomutase 2 (Homo sapiens, UniProt O15305); test: Counter screen SAR assay for PMM2 inhibitors via a fluorescence intensity assay. [Related pubchem assays (depositor defined):AID1545, AID1574]
[8] = biological target: FAD-linked sulfhydryl oxidase ALR (Homo sapiens, UniProt P55789); test: inhibitors of human ALR sulfhydryl oxidase, dose response, biochemical, H2O2 detection, luminescence, cherry-pick (AID 493248)
[9] = biological target: T3, DNA dC->dU-editing enzyme APOBEC-3G; test: Dose Response confirmation of small molecule APOBEC3G DNA Deaminase Inhibitors via a fluorescence-based single-stranded DNA deaminase assay. [Related pubchem assays (depositor defined):AID493012, AID493028]; assay type: functional
[10] = Vero E6 cell cytotoxicity, dose response, cytotoxicity control for non-replicating M. tuberculosis project, secondary assay (AID 492998); assay type: functional, VeroE6; conditions: Vero C1008
[11] = Vero cell cytotoxicity, dose response, cytotoxicity control for M. tuberculosis growth inhibitor project, Vero cells, purified and synthesized compounds, set 4 (AID 504854); assay type: functional; conditions: Mycobacterium tuberculosis
[12] = A Cell Based Secondary Assay to Explore Cytotoxicity in THP-1 Cells of Compounds that Modulate Mycobacterium tuberculosis in Media Containing Glycerol versus Media without Glycerol (2).; assay type: functional
cells = assay type: functional
[13] = HepG2 cell cytotoxicity, dose response, cytotoxicity control, set 3 (AID 504853); assay type: functional; conditions: Mycobacterium tuberculosis
[14] = Vero cell cytotoxicity, dose response, cytotoxicity control for M. tuberculosis growth inhibitor project, Vero cells, purified and synthesized compounds, set 5 (AID 504909); assay type: functional; conditions: Mycobacterium tuberculosis
[15] = inhibitors of intracellular T. cruzi replication, confirmation, NIH3T3 host cells, beta-gal luminescence (AID 2044); assay type: functional, cell-based;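 also: intracellular parasites grown in NIH/3T3 mouse fibroblasts as host cells; luminescent beta-galactosidase reporter signal from transgenic T. cruzi replicating inside host cells; inhibitors lower the luminescence signal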
[16] = THP-1 cell cytotoxicity, dose response, cytotoxicity control for non-replicating M. tuberculosis project (AID 489025); assay type: functional
[17] = THP-1 cell cytotoxicity, cytotoxicity control, set 4 (AID 504911); assay type: functional; conditions: Mycobacterium tuberculosis
[18] = THP-1 cell cytotoxicity, dose response, cytotoxicity control, set 3 (AID 504852); assay type: functional; conditions: Mycobacterium tuberculosis
[19] = microbe, parasite or virus in culture; assay type: functional; conditions: Mycobacterium tuberculosis
[20] = HepG2 cell cytotoxicity, cytotoxicity control, set 4 (AID 504910); assay type: functional; conditions: Mycobacterium tuberculosis
[21] = cytotoxicity toward NIH3T3 fibroblasts, dose response, counter-screen, cell-based, ATP luminescence, mouse fibroblasts (AID 2010); assay type: functional;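 also: cells exposed to compound for about 90 hours before reading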
[22] = Vero cell cytotoxicity, cytotoxicity control for M. tuberculosis inhibitor project, purified and synthesized samples, set 3 (AID 504684); assay type: functional
[23] = A Cell Based Secondary Assay to Explore Cytotoxicity in HepG2 Cells of Compounds that Modulate Mycobacterium tuberculosis in Media Containing Glycerol versus Media without Glycerol (2).; assay type: functional
[24] = biological target: Serine/threonine-protein kinase D3 (Homo sapiens, UniProt O94806); assay type: functional;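 also: determined within a kinase panel screen, with PRKCN as the panel member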
[25] = biological target: Casein kinase I isoform delta (Homo sapiens, UniProt P48730); assay type: functional;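 also: measured as one member (CSNK1D) of a kinome panel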
[26] = biological target: Mitogen-activated protein kinase kinase kinase kinase 4 (Homo sapiens, UniProt O95819); assay type: functional
[27] = biological target: Melanin-concentrating hormone receptor 1 (Homo sapiens, UniProt Q99705); test: Late-stage fluorescence-based counterscreen for antagonists of the G-protein coupled receptor 7 (GPR7): cell-based dose response assay to identify antagonists of the melanin-concentrating hormone receptor 1 (MCHR1) Set 6.; assay type: functional
[28] = biological target: T5, Neuropeptides B/W receptor type 1 (Homo sapiens, UniProt P48145); test: GPR7 antagonist potency, late-stage follow-up, cell-based, fluorescence, dose response, set 6 (AID 588583); assay type: functional
T5 sequence (P48145 whole entry): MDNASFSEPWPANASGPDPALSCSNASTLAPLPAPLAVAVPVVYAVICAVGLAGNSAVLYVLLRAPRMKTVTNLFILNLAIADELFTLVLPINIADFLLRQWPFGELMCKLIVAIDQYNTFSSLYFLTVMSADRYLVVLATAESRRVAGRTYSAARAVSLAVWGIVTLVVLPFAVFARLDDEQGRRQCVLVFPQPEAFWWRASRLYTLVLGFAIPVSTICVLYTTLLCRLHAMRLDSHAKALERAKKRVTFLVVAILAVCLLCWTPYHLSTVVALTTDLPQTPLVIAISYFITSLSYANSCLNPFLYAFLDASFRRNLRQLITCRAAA

[29] = biological target: Serine/threonine-protein kinase Nek2 (Homo sapiens, UniProt P51955); assay type: functional
[30] = biological target: Dual specificity tyrosine-phosphorylation-regulated kinase 1A (Homo sapiens, UniProt Q13627); assay type: functional;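 also: measured against DYRK1A as one member of a broad kinome profiling panel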
[31] = biological target: Ribosomal protein S6 kinase beta-1 (Homo sapiens, UniProt P23443); assay type: functional;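 also: measured as one member of a kinome-wide profiling panel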
[32] = biological target: Vascular endothelial growth factor receptor 3 (Homo sapiens, UniProt P35916); assay type: functional;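 also: value from a kinome-wide profiling panel, with FLT4 as the panel member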
[33] = biological target: Serine/threonine-protein kinase PLK1 (Homo sapiens, UniProt P53350); assay type: functional;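 also: PLK1 measured as one member of a kinome-wide profiling panel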
[34] = biological target: Serine/threonine-protein kinase PLK3 (Homo sapiens, UniProt Q9H4B4); assay type: functional
[35] = biological target: Casein kinase I isoform alpha (Homo sapiens, UniProt P48729); assay type: functional
[36] = biological target: Mitogen-activated protein kinase kinase kinase kinase 2 (Homo sapiens, UniProt Q12851); assay type: functional;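 also: measured as one member of a kinome-wide kinase panel, with MAP4K2 as the panel entry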
[37] = biological target: Cyclin-dependent kinase 7 (Homo sapiens, UniProt P50613); assay type: functional;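 also: value comes from a kinome-wide kinase profiling panel in which CDK7 is one member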
[38] = biological target: Dual specificity protein kinase CLK4 (Homo sapiens, UniProt Q9HAZ1); assay type: functional
[39] = biological target: Platelet-derived growth factor receptor alpha (Homo sapiens, UniProt P16234); test: Navigating the Kinome. Panel member name: PDGFRA; assay type: functional
[40] = biological target: Dual specificity tyrosine-phosphorylation-regulated kinase 1B (Homo sapiens, UniProt Q9Y463); test: Navigating the Kinome. Panel member name: DYRK1B; assay type: functional
[41] = biological target: Tyrosine-protein kinase BTK (Homo sapiens, UniProt Q06187); assay type: functional
[42] = biological target: Tyrosine-protein kinase ABL1 (Homo sapiens, UniProt P00519); assay type: functional
Aurora kinase B = Aurora kinase B (Homo sapiens, UniProt Q96GD4); assay type: functional
Focal adhesion kinase 1 = Focal adhesion kinase 1 (Homo sapiens, UniProt Q05397); assay type: functional;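 also: measured as one member of a kinome panel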
[43] = biological target: Inhibitor of nuclear factor kappa-B kinase subunit epsilon (Homo sapiens, UniProt Q14164); test: Navigating the Kinome. Panel member name: IKBKE; assay type: functional
[44] = biological target: Mitogen-activated protein kinase 8 (Homo sapiens, UniProt P45983); assay type: functional;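 also: value comes from one member of a kinome-wide kinase profiling panel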
[45] = biological target: Macrophage colony-stimulating factor 1 receptor (Homo sapiens, UniProt P07333); assay type: functional;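 also: value comes from the Navigating the Kinome screening panel, CSF1R member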
[46] = biological target: Tyrosine-protein kinase receptor TYRO3 (Homo sapiens, UniProt Q06418); assay type: functional;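 also: TYRO3 value obtained as one member of a kinome-wide profiling panel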
[47] = biological target: Serine/threonine-protein kinase PAK 4 (Homo sapiens, UniProt O96013); assay type: functional;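 also: value obtained within a kinome profiling panel in which PAK4 was one of the panel members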
Activin receptor type-1 = Activin receptor type-1 (Homo sapiens, UniProt Q04771); test: Navigating the Kinome. Panel member name: ACVR1; assay type: functional

T3 sequence (Q9HC16 whole entry): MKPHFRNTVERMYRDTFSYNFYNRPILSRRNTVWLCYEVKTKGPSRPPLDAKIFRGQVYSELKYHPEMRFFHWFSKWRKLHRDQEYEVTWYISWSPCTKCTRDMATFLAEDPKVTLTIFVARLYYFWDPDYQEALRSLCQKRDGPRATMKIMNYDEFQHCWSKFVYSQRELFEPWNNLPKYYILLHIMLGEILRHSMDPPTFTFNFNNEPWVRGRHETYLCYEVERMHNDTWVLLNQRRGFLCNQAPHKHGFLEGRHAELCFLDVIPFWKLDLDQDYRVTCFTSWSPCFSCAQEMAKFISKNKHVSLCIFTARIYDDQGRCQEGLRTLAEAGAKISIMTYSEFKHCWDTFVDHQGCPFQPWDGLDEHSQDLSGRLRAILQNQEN
T1 sequence (P31941 whole entry): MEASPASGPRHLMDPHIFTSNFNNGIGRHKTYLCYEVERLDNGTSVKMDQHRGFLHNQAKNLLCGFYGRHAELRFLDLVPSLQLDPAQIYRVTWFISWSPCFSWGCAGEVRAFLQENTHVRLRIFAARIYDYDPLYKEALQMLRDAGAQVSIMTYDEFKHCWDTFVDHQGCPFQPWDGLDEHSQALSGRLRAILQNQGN
Chain of Mitogen-activated protein kinase kinase kinase kinase 2 (Q12851 whole entry): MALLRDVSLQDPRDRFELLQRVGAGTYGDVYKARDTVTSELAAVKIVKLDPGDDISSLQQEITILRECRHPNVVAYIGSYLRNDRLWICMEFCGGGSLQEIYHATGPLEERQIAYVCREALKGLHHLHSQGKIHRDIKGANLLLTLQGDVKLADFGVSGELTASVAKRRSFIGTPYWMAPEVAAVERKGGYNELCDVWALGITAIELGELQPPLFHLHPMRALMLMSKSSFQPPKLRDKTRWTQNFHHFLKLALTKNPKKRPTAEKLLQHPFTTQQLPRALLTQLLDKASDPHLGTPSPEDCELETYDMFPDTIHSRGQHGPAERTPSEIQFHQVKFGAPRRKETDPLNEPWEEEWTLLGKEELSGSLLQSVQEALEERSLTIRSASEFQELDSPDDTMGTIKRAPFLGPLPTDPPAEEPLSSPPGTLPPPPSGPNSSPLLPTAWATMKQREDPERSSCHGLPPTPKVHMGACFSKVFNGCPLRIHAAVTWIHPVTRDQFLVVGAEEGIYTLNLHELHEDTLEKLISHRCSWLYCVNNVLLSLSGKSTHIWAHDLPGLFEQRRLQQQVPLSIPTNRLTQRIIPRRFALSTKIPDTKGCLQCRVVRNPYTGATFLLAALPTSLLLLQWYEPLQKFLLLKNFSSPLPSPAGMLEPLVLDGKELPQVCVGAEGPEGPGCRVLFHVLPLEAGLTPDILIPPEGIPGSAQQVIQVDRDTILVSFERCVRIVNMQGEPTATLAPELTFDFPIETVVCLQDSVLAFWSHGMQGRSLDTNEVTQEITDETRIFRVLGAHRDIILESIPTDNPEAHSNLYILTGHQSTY
Chain of Dual specificity tyrosine-phosphorylation-regulated kinase 1B (Q9Y463 whole entry): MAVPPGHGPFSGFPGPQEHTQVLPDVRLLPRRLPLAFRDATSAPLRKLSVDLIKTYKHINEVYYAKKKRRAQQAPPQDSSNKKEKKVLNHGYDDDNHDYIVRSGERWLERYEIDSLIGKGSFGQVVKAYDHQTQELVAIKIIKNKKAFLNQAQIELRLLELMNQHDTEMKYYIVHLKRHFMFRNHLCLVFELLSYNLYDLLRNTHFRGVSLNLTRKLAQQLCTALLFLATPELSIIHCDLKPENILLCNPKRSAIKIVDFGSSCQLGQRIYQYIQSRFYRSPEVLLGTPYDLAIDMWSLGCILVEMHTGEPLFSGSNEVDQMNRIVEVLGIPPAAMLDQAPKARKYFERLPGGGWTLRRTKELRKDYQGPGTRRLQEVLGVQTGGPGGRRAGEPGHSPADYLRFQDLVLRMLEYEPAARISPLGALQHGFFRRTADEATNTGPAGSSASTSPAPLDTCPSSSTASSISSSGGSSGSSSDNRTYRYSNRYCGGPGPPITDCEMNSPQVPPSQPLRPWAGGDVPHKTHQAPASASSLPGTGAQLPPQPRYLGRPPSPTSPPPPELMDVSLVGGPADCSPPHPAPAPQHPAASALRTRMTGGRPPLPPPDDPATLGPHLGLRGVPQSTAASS
Chain of Dual specificity protein kinase CLK4 (Q9HAZ1 whole entry): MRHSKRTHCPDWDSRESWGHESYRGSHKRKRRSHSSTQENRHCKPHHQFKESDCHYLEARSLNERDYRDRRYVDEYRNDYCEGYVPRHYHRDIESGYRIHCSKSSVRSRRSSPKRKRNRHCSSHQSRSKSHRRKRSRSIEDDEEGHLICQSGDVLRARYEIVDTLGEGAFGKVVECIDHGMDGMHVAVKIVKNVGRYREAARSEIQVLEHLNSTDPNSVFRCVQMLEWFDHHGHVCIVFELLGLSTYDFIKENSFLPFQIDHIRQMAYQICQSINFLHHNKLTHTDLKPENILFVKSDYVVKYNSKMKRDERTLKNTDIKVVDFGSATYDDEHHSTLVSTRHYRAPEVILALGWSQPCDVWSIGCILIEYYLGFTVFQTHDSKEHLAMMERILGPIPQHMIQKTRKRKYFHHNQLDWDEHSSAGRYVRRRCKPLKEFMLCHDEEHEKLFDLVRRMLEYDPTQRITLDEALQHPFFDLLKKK
Chain of Casein kinase I isoform alpha (P48729 whole entry, canonical isoform): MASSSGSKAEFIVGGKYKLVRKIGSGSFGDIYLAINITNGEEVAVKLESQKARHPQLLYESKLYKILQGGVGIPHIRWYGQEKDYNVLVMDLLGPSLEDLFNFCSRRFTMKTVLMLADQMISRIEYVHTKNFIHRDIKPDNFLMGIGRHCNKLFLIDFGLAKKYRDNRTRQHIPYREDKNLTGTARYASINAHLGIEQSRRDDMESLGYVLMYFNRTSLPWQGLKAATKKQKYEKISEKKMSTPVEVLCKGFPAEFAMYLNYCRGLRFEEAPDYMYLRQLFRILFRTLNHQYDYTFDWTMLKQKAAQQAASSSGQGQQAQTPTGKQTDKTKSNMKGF
Chain of Mitogen-activated protein kinase kinase kinase kinase 4 (O95819 whole entry): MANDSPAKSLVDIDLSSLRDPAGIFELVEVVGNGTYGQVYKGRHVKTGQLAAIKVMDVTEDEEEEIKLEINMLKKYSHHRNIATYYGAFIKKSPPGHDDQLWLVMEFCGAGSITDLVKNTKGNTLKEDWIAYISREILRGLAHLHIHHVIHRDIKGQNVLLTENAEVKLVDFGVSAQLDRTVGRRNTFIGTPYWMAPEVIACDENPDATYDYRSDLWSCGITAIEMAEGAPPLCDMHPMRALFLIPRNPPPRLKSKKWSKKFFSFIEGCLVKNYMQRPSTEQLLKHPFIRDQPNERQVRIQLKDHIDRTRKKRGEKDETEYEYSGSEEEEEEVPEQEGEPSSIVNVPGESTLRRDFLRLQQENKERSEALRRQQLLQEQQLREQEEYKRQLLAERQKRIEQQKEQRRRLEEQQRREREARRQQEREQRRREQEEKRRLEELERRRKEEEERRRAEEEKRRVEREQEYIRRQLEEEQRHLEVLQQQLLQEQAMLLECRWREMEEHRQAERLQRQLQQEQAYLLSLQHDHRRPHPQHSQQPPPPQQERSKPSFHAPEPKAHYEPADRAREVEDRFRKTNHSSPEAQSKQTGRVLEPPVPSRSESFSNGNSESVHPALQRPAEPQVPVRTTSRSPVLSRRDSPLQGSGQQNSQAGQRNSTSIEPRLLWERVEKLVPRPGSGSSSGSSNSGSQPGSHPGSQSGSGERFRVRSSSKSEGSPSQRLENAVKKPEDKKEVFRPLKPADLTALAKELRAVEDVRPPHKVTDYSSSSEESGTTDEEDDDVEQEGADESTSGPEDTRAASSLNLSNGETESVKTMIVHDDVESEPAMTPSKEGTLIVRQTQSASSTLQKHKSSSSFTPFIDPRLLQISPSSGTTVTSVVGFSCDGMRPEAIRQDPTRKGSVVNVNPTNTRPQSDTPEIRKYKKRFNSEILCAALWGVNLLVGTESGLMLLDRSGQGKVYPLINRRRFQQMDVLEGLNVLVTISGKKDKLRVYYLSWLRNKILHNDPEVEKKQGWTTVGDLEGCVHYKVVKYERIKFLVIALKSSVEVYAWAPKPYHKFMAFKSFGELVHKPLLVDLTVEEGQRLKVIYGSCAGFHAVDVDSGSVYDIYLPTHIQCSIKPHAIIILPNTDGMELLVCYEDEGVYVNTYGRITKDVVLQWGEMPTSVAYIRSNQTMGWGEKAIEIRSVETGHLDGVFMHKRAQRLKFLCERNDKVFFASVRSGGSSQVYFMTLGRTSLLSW
Chain of Serine/threonine-protein kinase Nek2 (P51955 whole entry): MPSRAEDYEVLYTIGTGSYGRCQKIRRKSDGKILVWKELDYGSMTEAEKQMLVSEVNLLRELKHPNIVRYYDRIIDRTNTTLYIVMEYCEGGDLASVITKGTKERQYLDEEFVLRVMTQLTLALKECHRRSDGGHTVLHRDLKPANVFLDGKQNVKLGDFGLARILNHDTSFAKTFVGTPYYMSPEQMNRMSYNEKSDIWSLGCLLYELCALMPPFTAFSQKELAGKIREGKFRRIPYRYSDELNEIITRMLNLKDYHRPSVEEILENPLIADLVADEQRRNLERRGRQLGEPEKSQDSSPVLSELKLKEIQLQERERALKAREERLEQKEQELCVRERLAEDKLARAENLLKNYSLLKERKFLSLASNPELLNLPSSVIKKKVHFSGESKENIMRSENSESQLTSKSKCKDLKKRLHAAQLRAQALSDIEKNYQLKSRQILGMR
Chain of FAD-linked sulfhydryl oxidase ALR (P55789 whole entry): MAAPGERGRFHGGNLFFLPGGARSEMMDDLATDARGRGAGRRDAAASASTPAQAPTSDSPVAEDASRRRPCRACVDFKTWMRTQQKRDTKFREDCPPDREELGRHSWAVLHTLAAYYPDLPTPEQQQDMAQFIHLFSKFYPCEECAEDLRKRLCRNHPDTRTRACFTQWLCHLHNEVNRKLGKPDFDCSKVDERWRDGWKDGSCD
Chain of Phosphomannomutase 2 (O15305 whole entry): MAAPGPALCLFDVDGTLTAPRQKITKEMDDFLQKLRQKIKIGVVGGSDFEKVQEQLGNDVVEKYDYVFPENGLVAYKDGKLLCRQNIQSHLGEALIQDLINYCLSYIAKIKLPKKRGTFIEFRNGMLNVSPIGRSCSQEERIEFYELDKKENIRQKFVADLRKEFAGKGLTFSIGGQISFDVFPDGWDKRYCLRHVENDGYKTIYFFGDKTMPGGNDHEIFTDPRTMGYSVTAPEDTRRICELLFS

## COc1ccc(-c2nnc(S)[nH]2)cc1
[1]
  IC50: > 99 µM (inactive)
[2]
  IC50: > 100 µM (inactive)
Leucine aminopeptidase
  IC50: 39.5 µM (active)
[3]
  IC50: > 99 µM (inactive)
[4]
  EC50: > 112 µM (not active)
[5]
  IC50: 1.22 µM (active)
[6]
  IC50: 1.19 µM (active)
[7]
  IC50: 50.1 µM (active)
Phosphomannomutase 2
  IC50: > 100 µM (inactive)
[8]
  AC50: 0.008 µM (active)
[9]
  IC50: 1.95 µM (active)

## Cc1[nH]c2ccccc2c1C(=O)COC(=O)c1ccc([N+](=O)[O-])s1
[10]
  CC50: > 20 µM (active)
[11]
  CC50: 29 µM (active)
[12]
  CC50: 25.1 µM (active)
cells
  IC50: 3.59 µM (active)
[13]
  CC50: 21 µM (active)
[14]
  CC50: > 63.9 µM (active)
[15]
  EC50: 1.75 µM (active)
[16]
  CC50: 29.6 µM (active)
[17]
  CC50: 32.3 µM (active)
[18]
  CC50: 16.3 µM (active)
[19]
  CC50: 32.2 µM (active)
[20]
  CC50: 30.3 µM (active)
[21]
  EC50: > 30 µM (not active)
[22]
  CC50: 25.7 µM (active)
[23]
  CC50: 20.7 µM (active)

## CC(C)(O)c1nnc2ccc(-c3c(-c4ccc(F)cc4F)nc4occn34)nn12
[24]
  Ki: 5.01 µM (active)
[25]
  Ki: 2.51 µM (active)
[26]
  Ki: 3.16 µM (active)

## CCc1cnn(Cc2cccc3ccccc23)c(=O)c1C(C#N)c1ccccc1 (centres undefined)
[27]
  IC50: 15.2 µM (inactive)
[28]
  IC50: 15.2 µM (inactive)

## CCn1c(=C(C#N)C(=O)O)sc(=CNc2ccccc2)c1=O
[29]
  Ki: 5.01 µM (active)
[30]
  Ki: 1.58 µM (active)
[31]
  Ki: 6.31 µM (active)
[32]
  Ki: 1.58 µM (active)
[33]
  Ki: 1.58 µM (active)
[34]
  Ki: 5.01 µM (active)

## Clc1cc2nnc(-c3ccccc3)n2cn1
[35]
  Ki: 39.8 µM (active)
[36]
  Ki: 12.6 µM (active)
[37]
  Ki: 20 µM (active)
[38]
  Ki: 63.1 µM (active)
[39]
  Ki: 15.8 µM (active)
[40]
  Ki: 79.4 µM (active)
[41]
  Ki: 50.1 µM (active)
[42]
  Ki: 63.1 µM (active)
Aurora kinase B
  Ki: 25.1 µM (active)

## Nc1nc2ncc(-c3ccccc3)cn2n1
[35]
  Ki: 25.1 µM (active)
[30]
  Ki: 50.1 µM (active)
[36]
  Ki: 79.4 µM (active)
Focal adhesion kinase 1
  Ki: 100 µM (active)
[43]
  Ki: 63.1 µM (active)
[38]
  Ki: 15.8 µM (active)
[44]
  Ki: 50.1 µM (active)
[40]
  Ki: 31.6 µM (active)
[26]
  Ki: 50.1 µM (active)
[45]
  Ki: 100 µM (active)
[46]
  Ki: 50.1 µM (active)
[47]
  Ki: 25.1 µM (active)
Activin receptor type-1
  Ki: 39.8 µM (active)
